Laboratory results: PubChem BioAssay (NCI)
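Five concentrations, 48 hours, 96-well plates. At the GI50, growth is halved. TGI marks complete inhibition of growth.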

Columns and labels:
Assay in all cases: growth of human tumour cells (NCI), 48 h
[1] = test system: OVCAR-3 ovarian
[2] = test system: RPMI-8226 leukemia
[3] = test system: NCI-H460 lung
[4] = test system: DU-145 prostate
[5] = test system: RXF 393 renal
[6] = test system: SF-268 CNS
[7] = test system: UO-31 renal
[8] = test system: MCF7 breast
[9] = test system: PC-3 prostate
[10] = test system: MOLT-4 leukemia
[11] = test system: M14 melanoma
[12] = test system: COLO 205 colon
[13] = test system: SK-MEL-28 melanoma
[14] = test system: SF-539 CNS
[15] = test system: UACC-257 melanoma
[16] = test system: NCI/ADR-RES ovarian
[17] = test system: IGROV1 ovarian
[18] = test system: LOX IMVI melanoma
[19] = test system: SNB-75 CNS
[20] = test system: HS 578T breast
[21] = test system: HCC-2998 colon
[22] = test system: SW-620 colon
[23] = test system: HOP-62 NSCLC
[24] = test system: CCRF-CEM leukemia
[25] = test system: SN12C renal
[26] = test system: KM12 colon
[27] = test system: SK-MEL-2 melanoma
[28] = test system: EKVX NSCLC
[29] = test system: BT-549 breast
[30] = test system: SNB-19 CNS
[31] = test system: CAKI-1 renal
[32] = test system: HT29 colon
[33] = test system: K-562 leukemia
[34] = test system: OVCAR-8 ovarian
[35] = test system: HCT-116 colon
[36] = test system: T-47D breast
[37] = test system: 786-0 renal
[38] = test system: HCT-15 colon
[39] = test system: OVCAR-4 ovarian
[40] = test system: SF-295 CNS
[41] = test system: NCI-H226 lung
[42] = test system: NCI-H23 lung
[43] = test system: SK-MEL-5 melanoma
[44] = test system: HOP-92 NSCLC
[45] = test system: NCI-H522 lung
[46] = test system: SK-OV-3 ovarian
[47] = test system: MDA-MB-435
[48] = test system: MDA-MB-231 breast
[49] = test system: ACHN renal
[50] = test system: OVCAR-5 ovarian
[51] = test system: UACC-62 melanoma
[52] = test system: A549 NSCLC
[53] = test system: U251 CNS
[54] = test system: HL-60(TB) leukemia
[55] = test system: A498 renal
[56] = test system: MALME-3M melanoma

`Cc1nc2c(Br)cc(Br)cc2c(=O)n1-c1nnc(-c2cccc(Cl)c2Cl)c(N)n1` was tested, and the GI50 [1] was 18.6 µM, the TGI [1] was 60.4 µM and the GI50 [2] was 9.39 µM. It also gave a TGI [2] of 87 µM, a GI50 [3] of 20.3 µM and a TGI [3] of over 100 µM. It also gave a GI50 [4] of 27.8 µM, a TGI [4] of over 100 µM and a GI50 [5] of 26.2 µM. For the same molecule, the TGI [5] was over 100 µM, the GI50 [6] was 45.5 µM and the TGI [6] was over 100 µM. The GI50 [7] was 31 µM, the TGI [7] was over 100 µM and the GI50 [8] was 26.7 µM. The TGI [8] was over 100 µM, the GI50 [9] was 23.6 µM and the TGI [9] was over 100 µM. For the same molecule, the GI50 [10] was 15.3 µM, the TGI [10] was 62.1 µM and the GI50 [11] was 4.8 µM. The TGI [11] was 22.7 µM, the GI50 [12] was 32.9 µM and the TGI [12] was over 100 µM. It also gave a GI50 [13] of 65.4 µM, a TGI [13] of over 100 µM and a GI50 [14] of 21.6 µM. For the same molecule, the TGI [14] was 60 µM, the GI50 [15] was 24.5 µM and the TGI [15] was 65.1 µM. For the same molecule, the GI50 [16] was 13.6 µM, the TGI [16] was 37.5 µM and the GI50 [17] was 15 µM. The TGI [17] was 55.1 µM, the GI50 [18] was 12.9 µM and the TGI [18] was 39.9 µM. The GI50 [19] was 33.6 µM, the TGI [19] was over 100 µM and the GI50 [20] was 16 µM. It also gave a TGI [20] of 47.2 µM, a GI50 [21] of 17.6 µM and a TGI [21] of 41.3 µM. It also gave a GI50 [22] of 33.8 µM, a TGI [22] of over 100 µM and a GI50 [23] of 7.08 µM. The TGI [23] was 28.2 µM, the GI50 [24] was 19.3 µM and the TGI [24] was over 100 µM. For the same molecule, the GI50 [25] was 19 µM, the TGI [25] was 62 µM and the GI50 [26] was 11.4 µM. It also gave a TGI [26] of 40.3 µM, a GI50 [27] of 27.4 µM and a TGI [27] of over 100 µM. For the same molecule, the GI50 [28] was 22.1 µM, the TGI [28] was over 100 µM and the GI50 [29] was 29.3 µM. For the same molecule, the TGI [29] was over 100 µM, the GI50 [30] was 42 µM and the TGI [30] was over 100 µM. It also gave a GI50 [31] of 28.5 µM, a TGI [31] of 80.6 µM and a GI50 [32] of 30.3 µM. It also gave a TGI [32] of over 100 µM, a GI50 [33] of 3.4 µM and a TGI [33] of 22.6 µM. For the same molecule, the GI50 [34] was 18.7 µM, the TGI [34] was 60.7 µM and the GI50 [35] was 12.8 µM. It also gave a TGI [35] of 34.9 µM, a GI50 [36] of 55.2 µM and a TGI [36] of over 100 µM. It also gave a GI50 [37] of 18.4 µM, a TGI [37] of 48.2 µM and a GI50 [38] of 15.4 µM. The TGI [38] was 50.9 µM, the GI50 [39] was 84.5 µM and the TGI [39] was over 100 µM. For the same molecule, the GI50 [40] was 13.2 µM, the TGI [40] was 41.1 µM and the GI50 [41] was 21.3 µM. For the same molecule, the TGI [41] was 59.6 µM, the GI50 [42] was 23.4 µM and the TGI [42] was 65.5 µM. For the same molecule, the GI50 [43] was 17.2 µM, the TGI [43] was 39 µM and the GI50 [44] was 42.4 µM. The TGI [44] was over 100 µM, the GI50 [45] was 12.8 µM and the TGI [45] was 54.6 µM. For the same molecule, the GI50 [46] was 24.9 µM, the TGI [46] was over 100 µM and the GI50 [47] was 3.8 µM. The TGI [47] was 14.3 µM, the GI50 [48] was 13.9 µM and the TGI [48] was 49.5 µM. For the same molecule, the GI50 [49] was 19.5 µM, the TGI [49] was 56.1 µM and the GI50 [50] was 26.6 µM. It also gave a TGI [50] of 74.5 µM, a GI50 [51] of 13.4 µM and a TGI [51] of 37.3 µM. The GI50 [52] was 25.6 µM, the TGI [52] was 85.1 µM and the GI50 [53] was 21.7 µM. The TGI [53] was 72.5 µM.

For `COC(=O)c1c2c(c(C)[n+]([O-])c1C)C(=O)C(NCc1ccc(Br)cc1)=CC2=O`, the GI50 [1] was 0.301 µM, the TGI [1] was 0.957 µM and the GI50 [3] was 1.86 µM. For the same molecule, the TGI [3] was over 100 µM, the GI50 [5] was 1.99 µM and the TGI [5] was 5.96 µM. For the same molecule, the GI50 [6] was 2.21 µM, the TGI [6] was 7.12 µM and the GI50 [8] was 1.33 µM. For the same molecule, the TGI [8] was 3.21 µM, the GI50 [10] was 1.97 µM and the TGI [10] was 4.74 µM. The GI50 [11] was 1.14 µM, the TGI [11] was 2.46 µM and the GI50 [13] was 4.13 µM. For the same molecule, the TGI [13] was over 100 µM, the GI50 [14] was 2.13 µM and the TGI [14] was 4.75 µM. For the same molecule, the GI50 [16] was 1.97 µM, the TGI [16] was 7.03 µM and the GI50 [18] was 1.67 µM. It also gave a TGI [18] of 6.7 µM, a GI50 [19] of 2.2 µM and a TGI [19] of 6.79 µM. The GI50 [20] was 2.64 µM, the TGI [20] was 9.94 µM and the GI50 [21] was 1.88 µM. The TGI [21] was 4.83 µM, the GI50 [23] was 2.38 µM and the TGI [23] was 7.07 µM. The GI50 [25] was 1.66 µM, the TGI [25] was 4.09 µM and the GI50 [27] was 1.88 µM. For the same molecule, the TGI [27] was 6.12 µM, the GI50 [29] was 1.73 µM and the TGI [29] was 3.52 µM. It also gave a GI50 [54] of 2.31 µM, a TGI [54] of 5.37 µM and a GI50 [33] of 2.38 µM. For the same molecule, the TGI [33] was over 100 µM, the GI50 [34] was 1.83 µM and the TGI [34] was 7.19 µM. It also gave a GI50 [35] of 1.23 µM, a TGI [35] of 3.77 µM and a GI50 [36] of 1.52 µM. The TGI [36] was 4.06 µM, the GI50 [37] was 3.13 µM and the TGI [37] was 11.2 µM. It also gave a GI50 [38] of 1.44 µM, a TGI [38] of 3.91 µM and a GI50 [39] of 0.704 µM. It also gave a TGI [39] of 2 µM, a GI50 [55] of 1.62 µM and a TGI [55] of 4.35 µM. For the same molecule, the GI50 [42] was 1.57 µM, the TGI [42] was 4.68 µM and the GI50 [43] was 0.867 µM. The TGI [43] was 2.11 µM, the GI50 [44] was 3.07 µM and the TGI [44] was 7.15 µM. For the same molecule, the GI50 [47] was 1.55 µM, the TGI [47] was 2.96 µM and the GI50 [56] was 0.243 µM. For the same molecule, the TGI [56] was 0.8 µM, the GI50 [48] was 1.41 µM and the TGI [48] was 5.51 µM. It also gave a GI50 [51] of 1.17 µM, a TGI [51] of 2.69 µM and a GI50 [53] of 2.14 µM. The TGI [53] was 6.01 µM.
